“And” between values parts separate entries of the source, which are not always exact repeats. Equal entries are not always repeated.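 Compound exposure: 48 hours, 5 concentrations, 96-well plates. GI50 = concentration required for 50% inhibition of growth. The concentration for full growth arrest is given as TGI.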
Key:
Test in all cases: DTP human tumour cell line panel, 48 h
ACHN renal = system: ACHN renal
CAKI-1 renal = system: CAKI-1 renal
HCT-15 colon = system: HCT-15 colon
HOP-62 NSCLC = system: HOP-62 NSCLC
KM12 colon = system: KM12 colon
MOLT-4 leukemia = system: MOLT-4 leukemia
PC-3 prostate = system: PC-3 prostate
RPMI-8226 leukemia = system: RPMI-8226 leukemia
SNB-75 CNS = system: SNB-75 CNS
MCF7 breast = system: MCF7 breast

Row | SMILES | GI50 (ACHN renal) [µM] | TGI (ACHN renal) | GI50 (CAKI-1 renal) [µM] | TGI (CAKI-1 renal) | GI50 (HCT-15 colon) [µM] | TGI (HCT-15 colon) | GI50 (HOP-62 NSCLC) [µM] | TGI (HOP-62 NSCLC) [µM] | GI50 (KM12 colon) [µM] | TGI (KM12 colon) [µM] | GI50 (MOLT-4 leukemia) [µM] | TGI (MOLT-4 leukemia) | GI50 (PC-3 prostate) [µM] | TGI (PC-3 prostate) [µM] | GI50 (RPMI-8226 leukemia) [µM] | TGI (RPMI-8226 leukemia) [µM] | GI50 (SNB-75 CNS) [µM] | TGI (SNB-75 CNS) [µM] | TGI (MCF7 breast) [µM] | GI50 (MCF7 breast) [µM]
1 | COc1ccc(NC2=C(I)C(=O)c3ncccc3C2=O)cc1 | 1.81 | 8.53 µM | 1.21 | 2.62 µM | 0.516 | 2.42 µM | 0.457 | 1.87 | 1.68 | 3.77 | 2.06 | 5.79 µM | 0.972 | 7.99 | 1.17 | 3.85 | 1.4 | 2.77 | – | –
2 | CC1=NN(C(=O)Nc2ccc(Cl)cc2)C(=O)C2CCC(=O)N12 (configuration not stated) | – | > 100 µM | – | > 100 µM | – | 44.2 µM | – | > 100 | – | > 100 | – | > 100 µM | – | – | – | > 100 | – | > 100 | – | –
3 | Oc1ccc2ccccc2c1N=Nc1cc(Cl)ccc1Cl | – | 24.7 µM | – | > 50 µM | – | > 50 µM | – | 20.8 | – | > 50 | – | > 50 µM | – | > 50 | – | > 50 | – | 23.9 | – | –
4 | COc1cc2oc(-c3ccccc3)cc(=O)c2c(O)c1C | – | > 100 µM | – | > 100 µM | – | > 100 µM | – | > 100 | – | > 100 | – | > 100 µM | – | – | – | > 100 | – | > 100 | – | –
5 | O=C(O)c1ccc(C(O)(c2ccccc2)c2ccccc2)cc1 | – | > 100 µM | – | > 100 µM | – | > 100 µM | – | > 100 | – | > 100 | – | > 100 µM | – | > 100 | – | > 100 | – | – | > 100 | –
6 | COc1cccc(-c2cc(=O)c3cc(N4CCOCC4)ccc3[nH]2)c1 | 0.0709 | > 100 µM | – | > 100 µM | 0.0328 | 0.227 µM and 0.575 µM | 0.0791 | > 100 | 0.0243 | – | 0.0338 | 1.48 µM and 0.17 µM | 0.0281 | > 100 | 0.135 | – | – | – | 20.1 | 0.0275
7 | N#CC1=C(N)NC(=S)NC12Nc1ccccc1S2 (configuration not stated) | 21.8 | 74.3 µM | 15 | 45 µM | 28.9 | > 100 µM | – | – | 24.9 | 75.5 | 28.8 | > 100 µM | 22 | 71.7 | 22.2 | > 100 | 30.4 | > 100 | – | –
8 | Cc1ccc(S(=O)(=O)N2CCN(C=S)CC2)cc1 | – | > 100 µM | – | – | – | > 100 µM | – | > 100 | – | > 100 | – | > 100 µM | – | – | – | – | – | > 100 | – | –
9 | O=Nc1c(-c2c(O)[nH]c3cc(Br)ccc23)[nH]c2ccccc12 | 0.519 | 1.91 µM | 0.109 | 1.45 µM | 0.963 | 3.1 µM | – | – | 0.471 | 1.94 | 2.99 | > 100 µM | 1.2 | – | 2.04 | > 22.5 | 0.285 | 2.96 | 7.79 | 1.83
10 | O=C(OCCCl)C1OC(n2cc(F)c(=O)[nH]c2=O)CC1O (configuration not stated) | – | > 100 µM | – | – | – | > 100 µM | – | > 100 | – | > 100 | – | > 100 µM | – | – | – | > 100 | – | > 100 | – | –
11 | Cc1cnc2oc3ccc(O)cc3c2c1-c1ccccc1 | 18.8 | > 100 µM | 58.6 | > 100 µM | 27.2 | > 100 µM | 27.3 | 83.4 | > 100 | > 100 | – | – | 6.51 | > 100 | > 100 | > 100 | 21.2 | > 100 | > 100 | 41
12 | O=C(Cc1nc2ccccc2o1)C(=O)Nc1cccc(Cl)c1 | – | > 100 µM | – | > 100 µM | – | > 100 µM | – | > 100 | – | > 100 | – | > 100 µM | – | – | – | – | – | > 100 | – | –
13 | N#CCC(=O)N/N=C1/C(=O)N(c2cc(Cl)ccc2Cl)C(=O)C(=O)C1c1nc2ccccc2s1 (configuration not stated) | – | > 100 µM | – | 94.4 µM | – | > 100 µM | – | > 100 | – | > 100 | – | > 100 µM | – | – | – | > 100 | – | > 100 | – | –
14 | O=C1C(=C([O-])c2ccccc2)C(=O)c2ccccc21.O=C1C(=C([O-])c2ccccc2)C(=O)c2ccccc21.[Mn+2] | – | – | > 100 | > 100 µM | 55.4 | > 100 µM | – | – | 72.9 | > 100 | > 100 | > 100 µM | – | – | > 100 | > 100 | > 100 | > 100 | – | –
15 | CCn1c2ccccc2c(=O)c2c(OC)ccc(OC)c21 | – | > 100 µM | – | > 100 µM | – | > 100 µM | – | > 100 | – | > 100 | – | > 100 µM | – | – | – | > 100 | – | – | – | –
16 | CC(=O)CC/C=C(\C)[C@H](O)[C@H](C)C(=O)O[C@H]1C[C@H](C)C=C2C=C[C@@]3(C)O[C@@H](O)CC(=O)[C@]3(C)[C@H]21 | 0.339 | 2 µM | – | – | 0.545 | 7.95 µM | 0.492 | 3.63 | 0.308 | 2.54 | – | – | 0.61 | 3.31 | 0.308 | 2.25 | 0.686 | 2.61 | 6.19 | 0.5
17 | O=[N+]([O-])c1ccc(C(Cl)C(Cl)c2ccc(C(Cl)C(Cl)c3ccc([N+](=O)[O-])cc3[N+](=O)[O-])cc2)c([N+](=O)[O-])c1 (configuration not stated) | 0.268 | 6.04 µM and 0.85 µM | 0.35 | 5.7 µM and 1.93 µM | 0.214 | 3.3 µM and 0.55 µM | – | 6.2 | – | 0.812 | – | > 62 µM | – | – | – | 0.509 | 0.231 | – | – | –
18 | O=C(CCc1ccccc1)NS(=O)(=O)c1ccccc1 | – | > 100 µM | – | > 100 µM | – | – | – | > 100 | – | > 100 | – | > 100 µM | – | – | – | > 100 | – | > 100 | – | –
19 | CCC1C(C(=O)Nc2ccccc2C)=C(C)NC(C)=C1c1ccccc1C (configuration not stated) | – | > 100 µM | – | > 100 µM | – | > 54.8 µM | – | > 100 | – | > 100 | – | > 100 µM | – | – | – | 61.5 | – | > 100 | – | –

Source: PubChem BioAssay (NCI)
